One test addresses T1, SMARCA2^BD (Homo sapiens, UniProt P51531).
T1 construct: SMARCA2^BD 1373–1511 ∆1400–1417; made in house
The experiment in a line: SPR binary binding of PROTAC to SMARCA2-functionalized surface. The settings on record: 1:1 Langmuir binding model, SEM N=3 or SD N=2, read-out: KTP (binary affinity PROTAC / SMARCA2). The method, then: PROTACs (10 mM stocks in 100% DMSO) were diluted to 400 nM in a running buffer (20 mM Tris pH 7.5, 200 mM NaCl, 0.02% P20). This stock solution was then serially diluted in the running buffer containing final 2% DMSO. Solutions were injected in multi-cycle kinetic format without regeneration (contact time 60 s, flow rate 80 μL/min, dissociation time 120 s) using a stabilization period of 30 s and syringe wash (50% DMSO) between injections onto a high-density VBC-functionalized surface. For SMARCA2 analysis, biotinylated proteins were introduced on a Series S streptavidin (SA) sensor chip at high-density (3000-4000 RU).
(§1) Raw sensorgrams were processed by performing double reference subtraction, solvent correction, and analysis was done using Biacore Insight Evaluation Software. Kinetic analysis was performed by fitting data to a 1:1 Langmuir interaction model and a steady-state affinity model was used to evaluate equilibrium binding affinity.

Test [1] has as its target T2, VBC / SMARCA2^BD ternary complex (Homo sapiens, UniProt P40337+P51531).
T2 construct: VHL (54-213), ElonginB (17-112) ElonginC (1-104); SMARCA2^BD 1373–1511 ∆1400–1417; His6 (N, cleaved yes); made in house
As to the kind of experiment: SPR ternary complex binding, VBC surface with preformed PROTAC/SMARCA2 bromodomain complex. The settings on record: for Kd: SPR, VHL, PROTAC, error SEM, N = 3, read-out: KLPT (ternary complex binding affinity). As for the experimental part:
SPR experiments were performed on a Biacore 8 K or T200 instrument (Cytiva). […] The running buffer during immobilization was PBS with 0.005% P20. Either high-density (3000-4000 RU) or low-density (300-400 RU) VBC-functionalized surfaces were created, followed by equilibration in the running buffer for 3 h.
PROTACs (10 mM in 100% DMSO) were initially prepared at 200 nM in a running buffer (20 mM Tris pH 8.0, 250 mM NaCl, 1 mM TCEP, 0.01% P20, 0.2 mg/ml BSA) with a concentration of 2% DMSO. This solution was mixed at 1:1 ratio with a solution of 5 μM of the SMARCA2 or BRD4 bromodomain protein in the running buffer. This complex was then serially diluted in the running buffer containing 2.5 μM SMARCA2 or BRD4 and 2% DMSO (5-point five-fold serial dilution). For ternary experiments, solutions were injected sequentially in single-cycle kinetic format without regeneration (contact time 60 s, flow rate 80 μL/min, dissociation time 300 s) using a stabilization period of 60 s and syringe wash (50% DMSO) between injections onto a low-density VBC-functionalized surface.
as §1

The next test addresses T3, SMARCA2 (Homo sapiens, UniProt P51531).
T3 construct: endogenous in cells; host or cells: A375
The experiment in a line: SMARCA2 degradation time course in A375 cells (MSD). The settings on record: single concentration at or near maximal activity. In kind it is cell-based. An excerpt:
This characteristic has been described as cooperativity (α > 1) and likely results from favorable PPIs present in the ternary complex. […] To measure the rate of protein degradation, we treated A375 cells with a single concentration of each PROTAC and measured the decrease in target abundance over time as shown in Figs. 4b and5b.
MSD electrochemiluminescence signals were subtracted by the average background signal from wells with lysis buffer alone. Normalized MSD values (POC) for individual compound treated wells were acquired by dividing background-subtracted assay signal by signal from vehicle control wells (cells + 0.1% DMSO) and multiplying by 100. This POC data was graphed using a nonlinear regression curve fit xy analysis and a log(inhibitor) vs response —variable slope (four parameter) model for dose response curves (Graphpad Prism 9, San Diego, CA, USA). To calculate area under the curve, all points on the curve were connected and vertical lines were drawn from each point down to y = 0, generating a series of trapezoids. The area of each trapezoid was determined using the equation A = (1/2)(h)(b1 + b2), where h = 1 (distance between points), b1 = POC of the first point and b2 = POC of the second point. The sum of all trapezoids provides an approximate area under the curve (AUC). For half-life (t1/2) determination in time course studies, a one-phase decay model was used for curve fitting and the time at which the curve crossed 50 POC was determined through interpolation (Graphpad Prism 9, San Diego, CA, USA). Additionally initial rate of degradation was determined by multiplying 100 with rate constant (τ = 0.693/t1/2).

For the next test, the target named is T4, SMARCA2-NanoLuc (Homo sapiens, UniProt P51531).
T4 construct: expressed in transfected cells; host or cells: HEK293
The experiment in a line: NanoBRET target engagement assay, live and permeabilized HEK293 cells (SMARCA2). Type of test: cell-based. The settings on record: SMARCA2 NanoBRET TE. The method, then: We employed a NanoBRET-based target engagement (TE) assay as reported earlier^7 for evaluating PROTACs relative permeability. In summary, live and permeabilized HEK293 cells with SMARCA2 or BRD4-NanoLuc were used for measuring IC50 values of different PROTACs. The relative shift in the IC50 was evaluated as relative binding affinity (RBA) by taking the ratio of IC50 values of live and permeabilized cells. Availability index (AI), which is a surrogate for permeability can be calculated by taking a ratio of RBA of compounds to permeable benchmark molecules. We used SMARCA bromodomain binding ligand^8 for SMARCA2 PROTACs and JQ1^9, 10 for BRD4 PROTACs as benchmark molecules.
Relative Binding Affinity (RBA) = Live-cell TE IC50 / Permeabilized-cell TE IC50
Availability Index (AI) = RBAtest cmpd / RBApermeable benchmark
Availability Index (AI) greater than one is indicative of reduced permeability compared to the benchmark.
A general note: BRET reads energy transfer from a luciferase to a nearby fluorophore.

Where [2] appears, read: live HEK293 cells, read-out: Live-Cell TE IC50.
The mark [3] stands for this setting: permeabilized HEK293 cells, read-out: Permeabilized-Cell TE IC50.

Where two headings read alike, the source gives them in different places.

T2 sequence (P40337 54-213): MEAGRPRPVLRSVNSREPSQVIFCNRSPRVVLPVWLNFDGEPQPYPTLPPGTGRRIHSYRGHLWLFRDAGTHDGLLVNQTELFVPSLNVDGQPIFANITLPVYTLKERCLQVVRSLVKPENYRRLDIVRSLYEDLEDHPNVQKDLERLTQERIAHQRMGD
T2 sequence (P51531 other isoform, or with tags, fused parts or gaps): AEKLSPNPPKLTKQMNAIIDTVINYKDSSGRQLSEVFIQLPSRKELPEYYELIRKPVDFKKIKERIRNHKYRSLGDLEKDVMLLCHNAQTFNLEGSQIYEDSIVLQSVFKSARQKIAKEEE
T2 sequence (Q15370 1-104, further chain): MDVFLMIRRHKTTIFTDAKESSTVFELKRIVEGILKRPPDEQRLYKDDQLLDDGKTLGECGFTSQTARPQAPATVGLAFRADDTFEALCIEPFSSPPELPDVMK
T2 sequence (Q15369 17-112, further chain): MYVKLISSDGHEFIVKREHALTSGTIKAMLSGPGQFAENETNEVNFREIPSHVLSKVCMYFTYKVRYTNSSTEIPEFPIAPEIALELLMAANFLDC
T4 sequence (P51531 whole entry): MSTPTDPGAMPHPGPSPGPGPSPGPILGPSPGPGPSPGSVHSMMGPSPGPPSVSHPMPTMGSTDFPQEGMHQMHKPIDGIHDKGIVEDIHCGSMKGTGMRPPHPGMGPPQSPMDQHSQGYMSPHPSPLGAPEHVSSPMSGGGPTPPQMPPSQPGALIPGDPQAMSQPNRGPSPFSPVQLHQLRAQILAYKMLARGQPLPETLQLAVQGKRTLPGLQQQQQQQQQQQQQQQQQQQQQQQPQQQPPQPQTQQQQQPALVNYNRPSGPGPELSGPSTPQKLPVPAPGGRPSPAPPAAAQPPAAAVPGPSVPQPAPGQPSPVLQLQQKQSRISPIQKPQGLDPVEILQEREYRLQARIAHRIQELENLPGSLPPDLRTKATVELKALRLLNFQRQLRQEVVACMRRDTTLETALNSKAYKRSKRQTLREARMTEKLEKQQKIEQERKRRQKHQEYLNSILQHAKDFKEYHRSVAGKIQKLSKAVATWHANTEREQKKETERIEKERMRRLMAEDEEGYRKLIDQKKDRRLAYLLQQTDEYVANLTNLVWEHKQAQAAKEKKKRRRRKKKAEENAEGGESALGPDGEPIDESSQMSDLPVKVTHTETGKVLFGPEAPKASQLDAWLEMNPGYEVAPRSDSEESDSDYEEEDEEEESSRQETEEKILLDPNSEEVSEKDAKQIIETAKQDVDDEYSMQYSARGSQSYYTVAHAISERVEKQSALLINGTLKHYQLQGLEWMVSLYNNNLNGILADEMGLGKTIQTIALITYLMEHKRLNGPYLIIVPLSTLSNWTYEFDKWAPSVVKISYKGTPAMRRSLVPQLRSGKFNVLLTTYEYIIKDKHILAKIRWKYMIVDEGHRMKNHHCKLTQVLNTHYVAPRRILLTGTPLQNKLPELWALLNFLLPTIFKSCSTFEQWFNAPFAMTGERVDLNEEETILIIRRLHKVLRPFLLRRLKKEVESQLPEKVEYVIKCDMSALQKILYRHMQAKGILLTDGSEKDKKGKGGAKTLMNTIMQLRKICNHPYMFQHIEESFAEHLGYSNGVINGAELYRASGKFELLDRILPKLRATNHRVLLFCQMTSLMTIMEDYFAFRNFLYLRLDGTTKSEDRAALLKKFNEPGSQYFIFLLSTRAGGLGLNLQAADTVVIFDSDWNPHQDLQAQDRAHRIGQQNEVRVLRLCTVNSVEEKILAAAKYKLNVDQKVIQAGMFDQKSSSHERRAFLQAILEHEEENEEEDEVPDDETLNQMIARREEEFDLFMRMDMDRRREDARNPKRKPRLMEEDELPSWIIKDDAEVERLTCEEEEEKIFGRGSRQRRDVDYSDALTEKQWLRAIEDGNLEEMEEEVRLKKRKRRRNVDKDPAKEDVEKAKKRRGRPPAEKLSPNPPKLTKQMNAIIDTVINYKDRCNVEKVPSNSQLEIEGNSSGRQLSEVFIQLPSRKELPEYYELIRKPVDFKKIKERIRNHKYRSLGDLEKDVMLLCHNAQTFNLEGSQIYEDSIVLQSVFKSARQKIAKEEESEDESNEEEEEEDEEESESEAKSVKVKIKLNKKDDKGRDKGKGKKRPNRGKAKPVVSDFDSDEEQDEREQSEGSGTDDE
T3 sequence (P51531 whole entry): as above
T1 sequence (P51531 1373-1493 isoform P51531-2): as the sequence (P51531 other isoform, or with tags, fused parts or gaps) above

Consider `Cc1ncsc1-c1ccc([C@H](C)NC(=O)[C@@H]2C[C@@H](O)CN2C(=O)[C@@H](NC(=O)CN2CCN(c3cc(-c4ccccc4O)nnc3N)CC2)C(C)(C)C)cc1` [Compound 6, (2S,4R)-1-((S)-2-(2-(4-(3-Amino-6-(2-hydroxyphenyl)pyridazin-4-yl)piperazin-1-yl)acetamido)-3,3-dimethylbutanoyl)-4-hydroxy-N-((S)-1-(4-(4-methylthiazol-5-yl)phenyl)ethyl)pyrrolidine-2-carboxamide, reference compound], for which the results for the Kd (on SMARCA2^BD; in test [1]) were 14.2 ± 1.6 nM and 5.6 ± 2 nM, respectively. For the same compound, the “α (cooperativity, KLP/KLPT)” value in test [1] stood at 2. For the same compound, on SMARCA2, the “Initial Degradation Rate” value amounted to 3.5 %/min. Also, the half-inhibitory concentration (IC50) (in general, the midpoint of a concentration-inhibition curve) on SMARCA2-NanoLuc (setting [2]) turned out to be 1410 nM; on SMARCA2-NanoLuc (setting [3]), 90 nM.

`Cc1ncsc1-c1ccc([C@H](C)NC(=O)[C@@H]2C[C@@H](O)CN2C(=O)[C@@H](NC(=O)Cc2ccnc(N3CCN(c4cc(-c5ccccc5O)nnc4N)CC3)c2)C(C)(C)C)cc1` [Compound 7, (2S,4R)-1-((S)-2-(2-(2-(4-(3-Amino-6-(2-hydroxyphenyl)pyridazin-4-yl)piperazin-1-yl)pyridin-4-yl)acetamido)-3,3-dimethylbutanoyl)-4-hydroxy-N-((S)-1-(4-(4-methylthiazol-5-yl)phenyl)ethyl)pyrrolidine-2-carboxamide]: the Kd is 46 ± 8.5 nM on SMARCA2^BD and 80 ± 6 nM in test [1]. For the same compound, in test [1], the “α (cooperativity, KLP/KLPT)” value came out at 0.11. Further, at SMARCA2, the “Initial Degradation Rate” value is 0.78 %/min. Also, the IC50 worked out at 690 nM at SMARCA2-NanoLuc (setting [2]) and 210 nM on SMARCA2-NanoLuc (setting [3]).

Consider `Cc1ncsc1-c1ccc([C@H](C)NC(=O)[C@@H]2C[C@@H](O)CN2C(=O)[C@@H](NC(=O)CCc2ccnc(N3CCN(c4cc(-c5ccccc5O)nnc4N)CC3)c2)C(C)(C)C)cc1` [Compound 8, (2S,4R)-1-((S)-2-(3-(2-(4-(3-Amino-6-(2-hydroxyphenyl)pyridazin-4-yl)piperazin-1-yl)pyridin-4-yl)propanamido)-3,3-dimethylbutanoyl)-4-hydroxy-N-((S)-1-(4-(4-methylthiazol-5-yl)phenyl)ethyl)pyrrolidine-2-carboxamide], for which the Kd came to 49 ± 12 nM at SMARCA2^BD and 27 ± 3 nM in test [1]. Further, in test [1], the “α (cooperativity, KLP/KLPT)” value is given as 0.26. Also, the “Initial Degradation Rate” value at SMARCA2 is on record as 1.34 %/min. Moreover, the IC50 stood at 600 nM at SMARCA2-NanoLuc (setting [2]) and 50 nM at SMARCA2-NanoLuc (setting [3]).

As to `Cc1ncsc1-c1ccc([C@H](C)NC(=O)[C@@H]2C[C@@H](O)CN2C(=O)[C@@H](NC(=O)c2ccnc(N3CCN(c4cnnc(-c5ccccc5O)c4)CC3)c2)C(C)(C)C)cc1` [Compound 10, N-((S)-1-((2S,4R)-4-Hydroxy-2-(((S)-1-(4-(4-methylthiazol-5-yl)phenyl)ethyl)carbamoyl)pyrrolidin-1-yl)-3,3-dimethyl-1-oxobutan-2-yl)-2-(4-(6-(2-hydroxyphenyl)pyridazin-4-yl)piperazin-1-yl)isonicotinamide], the Kd on SMARCA2^BD came to 745 ± 134 nM; in test [1], 250 ± 30 nM. Besides, the “α (cooperativity, KLP/KLPT)” value in test [1] was 0.24. Moreover, the “Initial Degradation Rate” value on SMARCA2 worked out at 0.56 %/min. In addition, the concentration for half-maximal inhibition (IC50) at SMARCA2-NanoLuc (setting [2]) was 2370 nM; at SMARCA2-NanoLuc (setting [3]), 5040 nM.

Source of the values: publication PMC10344917, “Affinity and cooperativity modulate ternary complex formation to drive targeted protein degradation” (Nature Communications, 2023).
